Here are results for 33 compounds from publication PMC10984466, “Structure-based identification of salicylic acid derivatives as malarial threonyl tRNA-synthetase inhibitors” (PLOS ONE, 2024).

Like-named read-outs stand apart in the source and are kept apart here.

This test has as its target T1, PfThrRS (Plasmodium falciparum, UniProt Q8IIA4).
T1 construct: made in house; host or cells: E. coli BL21(DE3)
T1 sequence (Q8IIA4 21-1013): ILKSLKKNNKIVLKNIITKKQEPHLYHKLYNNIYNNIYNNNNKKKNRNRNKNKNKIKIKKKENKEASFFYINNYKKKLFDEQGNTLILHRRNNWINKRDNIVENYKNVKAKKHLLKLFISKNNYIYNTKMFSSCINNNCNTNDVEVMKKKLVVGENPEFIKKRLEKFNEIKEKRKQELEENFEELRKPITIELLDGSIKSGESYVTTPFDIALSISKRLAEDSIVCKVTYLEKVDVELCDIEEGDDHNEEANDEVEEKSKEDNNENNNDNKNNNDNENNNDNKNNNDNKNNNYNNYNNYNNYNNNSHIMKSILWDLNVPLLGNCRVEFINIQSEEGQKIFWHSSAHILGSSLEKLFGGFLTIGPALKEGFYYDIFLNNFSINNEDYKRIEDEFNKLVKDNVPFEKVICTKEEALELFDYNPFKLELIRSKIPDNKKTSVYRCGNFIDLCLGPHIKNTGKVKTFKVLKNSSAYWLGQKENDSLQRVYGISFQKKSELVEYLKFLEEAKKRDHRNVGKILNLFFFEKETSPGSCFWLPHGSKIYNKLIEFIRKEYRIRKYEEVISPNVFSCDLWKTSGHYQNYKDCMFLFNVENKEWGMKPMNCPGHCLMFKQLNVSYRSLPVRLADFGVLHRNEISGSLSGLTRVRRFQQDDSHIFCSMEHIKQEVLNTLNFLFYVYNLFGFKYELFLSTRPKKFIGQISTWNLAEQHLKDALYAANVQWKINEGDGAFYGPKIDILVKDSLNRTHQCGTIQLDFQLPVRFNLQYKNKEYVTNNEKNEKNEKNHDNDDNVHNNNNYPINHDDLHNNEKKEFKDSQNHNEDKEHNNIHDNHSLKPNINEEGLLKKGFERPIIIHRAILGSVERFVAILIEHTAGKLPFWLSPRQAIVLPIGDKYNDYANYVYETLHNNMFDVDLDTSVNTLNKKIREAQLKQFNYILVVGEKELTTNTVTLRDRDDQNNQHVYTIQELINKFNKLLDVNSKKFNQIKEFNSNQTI
The test can be described thus: In vitro PfThrRS inhibition assay (aminoacylation activity, ATP consumption by Kinase-Glo luminescence). As to conditions: for LE (ligand efficiency): PfThrRS inhibitors, Fig 4 and text. The test is classed as biochemical. How it is done:
The bioassay protocol was adapted from the literature. The aminoacylation activity of PfThrRS in the presence of compounds was determined by measuring ATP consumption in the enzymatic reaction by using recombinant PfThrRS and P. falciparum cell extract as a source of t-RNA. ATP consumption was determined by Kinase-Glo® Reagent (Promega Inc.). The luminescence was read on a Tecan Infinite M1000 microplate reader. The inhibitory rate was measured in three independent assays. Borrelidin was obtained from commercial sources and used as a reference compound.

[1] abbreviates: Table SI1, adenosine binding subsite substituent.
Setting [2] is: Table SI1, adenosine binding subsite substituent, fraction of PfThrRS inhibited at 100 µM, read-out: ThrRS inhibition @100 µM, %.
The mark [3] stands for this setting: Table SI3, zinc ion binding group, fraction of PfThrRS inhibited at 100 µM, read-out: ThrRS inhibition @100 µM, %.
The mark [4] stands for this setting: Table SI2, arginine binding group, fraction of PfThrRS inhibited at 100 µM, read-out: ThrRS inhibition @100 µM, %.

For the compound `O=C(O)c1cc(S(=O)(=O)Nc2ccccc2)ccc1O` [7a, 2-Hydroxy-5-(N-phenylsulfamoyl)benzoic acid], where the note is “listed as 7”, the “LE (ligand efficiency)” value came to 0.34. The same compound displayed an IC50 under setting [1] of 13.1 ± 1.4 µM. Besides, the inhibition at 100 µM under setting [2] came out at 100%.

Regarding `COC(=O)c1cc(S(=O)(=O)Nc2ccccc2)ccc1O` [7b, Methyl 2-hydroxy-5-(N-phenylsulfamoyl)benzoate], under setting [3], the inhibition at 100 µM was 19 ± 8%.

For `O=C(NO)c1cc(S(=O)(=O)Nc2ccccc2)ccc1O` [7c, N,2-dihydroxy-5-(N-phenylsulfamoyl)benzamide], the inhibition at 100 µM under setting [3] stood at 16 ± 7%.

For the compound `O=C(O)c1cc(S(=O)(=O)Nc2ccccc2)ccc1S` [7d, 2-Mercapto-5-(N-phenylsulfamoyl)benzoic acid], under setting [3], the inhibition at 100 µM is 16 ± 11%.

Regarding `COc1ccc(S(=O)(=O)Nc2ccccc2)cc1C(=O)O` [7e], under setting [3], the inhibition at 100 µM worked out at 11 ± 7%.

For `O=C(O)c1cccc(S(=O)(=O)Nc2ccccc2)c1` [7f], the inhibition at 100 µM under setting [3] is 2 ± 4%.

As for `O=C(O)c1cc(S(=O)(=O)Nc2ccccc2)ccc1F` [7g], the inhibition at 100 µM under setting [3] turned out to be 0%.

Regarding `O=C(O)CC(O)(Cc1ccccc1)c1ccc(O)c(C(=O)O)c1` (stereo not drawn) [7h, 5-(1-Carboxy-2-hydroxy-3-phenylpropan-2-yl)-2-hydroxybenzoic acid], the inhibition at 100 µM under setting [4] worked out at 10 ± 8%.

Regarding `O=C(O)c1cc(C(Nc2ccccc2)C(=O)O)ccc1O` (stereo not drawn) [7i, 5-(Carboxy(phenylamino)methyl)-2-hydroxybenzoic acid], under setting [4], the inhibition at 100 µM is 0%.

As for `O=C(O)c1cc(S(=O)(=O)c2ccccc2)ccc1O` [7j, 2-Hydroxy-5-(phenylsulfonyl)benzoic acid], the inhibition at 100 µM under setting [4] came to 11 ± 10%.

Under setting [1], `O=C(Nc1cccc(C(F)(F)F)c1)c1cccc(NS(=O)(=O)c2ccc(O)c(C(=O)O)c2)c1` [7k] gave an IC50 of 31 ± 2 µM. Also, the inhibition at 100 µM under setting [2] amounted to 100%.

Consider `O=C(O)c1cc(S(=O)(=O)Nc2cc(Cl)ccc2Oc2ccccc2)ccc1O` [7l], for which the IC50 under setting [1] is 32 ± 2 µM. Further, under setting [2], the inhibition at 100 µM is 100%.

For the compound `CCCCc1ccc(NS(=O)(=O)c2ccc(O)c(C(=O)O)c2)cc1` [7m], the IC50 under setting [1] came to 31 ± 2 µM. The inhibition at 100 µM under setting [2] came out at 93%.

`O=C(O)c1cc(S(=O)(=O)Nc2ccc(I)cc2)ccc1O` [7n] came in with a 50% inhibitory concentration (IC50) under setting [1] of 46 ± 2 µM. For the same compound, the inhibition at 100 µM under setting [2] turned out to be 88%.

On to `O=C(O)c1cc(S(=O)(=O)Nc2ccc(Br)cc2)ccc1O` [7o], for which, under setting [1], the IC50 amounted to 32 ± 2 µM. In addition, under setting [2], the inhibition at 100 µM is 84%.

Consider `COc1cccc(-c2cccc(NS(=O)(=O)c3ccc(O)c(C(=O)O)c3)c2)c1` [7p, 2-Hydroxy-5-(N-(3’-methoxy-[1,1’-biphenyl]-3-yl)sulfamoyl)benzoic acid], for which, under setting [1], the IC50 stood at 46 ± 3 µM. Moreover, the inhibition at 100 µM under setting [2] stood at 80 ± 9%.

With `O=C(O)c1cc(S(=O)(=O)Nc2ccc(Cc3ccccc3)cc2)ccc1O` [7q, 5-(N-(4-benzylphenyl)sulfamoyl)-2-hydroxybenzoic acid], the 50% inhibitory concentration (IC50) under setting [1] came to 55 ± 3 µM. In addition, under setting [2], the inhibition at 100 µM worked out at 67 ± 11%.

Regarding `O=C(O)c1cc(S(=O)(=O)Nc2cccc(Cl)c2)ccc1O` [7r], under setting [1], the IC50 was determined as 76 ± 4 µM. For the same compound, the inhibition at 100 µM under setting [2] stood at 64%.

With `Cc1ccc(NS(=O)(=O)c2ccc(O)c(C(=O)O)c2)cc1` [7s], the half-inhibitory concentration (IC50) under setting [1] stood at 67 ± 3 µM. Besides, the inhibition at 100 µM under setting [2] worked out at 63%.

In the case of `O=C(O)c1cc(S(=O)(=O)Nc2ccc(Oc3ccccc3)cc2)ccc1O` [7t, 2-Hydroxy-5-(N-(4-phenoxyphenyl)sulfamoyl)benzoic acid], for the setting “100 μM compound, Figs 6, 8, 12, read-out: PfThrRS inhibition @100 μM, %”, the inhibition at 100 µM worked out at 58 ± 9%.

The compound `O=C(O)c1cc(S(=O)(=O)Nc2ccc3oc(=O)sc3c2)ccc1O` [7u] displayed a half-inhibitory concentration (IC50) under setting [1] of 89 ± 4 µM. For the same compound, the inhibition at 100 µM under setting [2] amounted to 58%.

For `O=C(O)c1cc(S(=O)(=O)Nc2cccc3ccccc23)ccc1O` [7v], the IC50 under setting [1] turned out to be 84 ± 4 µM. For the same compound, the inhibition at 100 µM under setting [2] worked out at 57%.

With `O=C(O)c1cc(S(=O)(=O)Nc2ccc(Cl)cc2)ccc1O` [7w], the inhibition at 100 µM under setting [2] was 31 ± 10%.

For `O=C(O)c1cc(S(=O)(=O)Nc2cccc(-c3ccccc3)c2)ccc1O` [7x, 5-(N-([1,1’-biphenyl]-3-yl)sulfamoyl)-2-hydroxybenzoic acid], the inhibition at 100 µM under setting [2] was determined as 7 ± 1%.

Turning to `O=C(O)c1cc(S(=O)(=O)Nc2ccc(Oc3ccccc3)cc2)ccc1O` [LVV-455], the inhibition at 100 µM under setting [2] worked out at 35 ± 11%.

On to `Cc1c(C(=O)O)nnn1-c1sc2c(c1C(=O)O)CCCC2` [compound 8], for which the “LE (ligand efficiency)” value is listed as 0.33. Also, for the setting “verified HTVS hits, Fig 4”, it took 10.3 ± 1.2 µM to reach half-maximal inhibition (IC50).

In the case of `O=C(O)CCS(=O)(=O)c1ccc2c(c1)OCCCO2` [compound 9], the “LE (ligand efficiency)” value was 0.30. Also, the IC50 (verified HTVS hits, Fig 4) is 75 ± 5 µM.

For `O=C(c1ccn(-c2ccc(F)cc2)n1)N1CCC(O)(C(=O)O)C1` (stereo not drawn) [compound 10], the “LE (ligand efficiency)” value is 0.29. For the same compound, the IC50 (verified HTVS hits, Fig 4) came out at 19 ± 2 µM.

In the case of `Cc1nc2cc(NC(=O)C3C4C=CC(C4)C3C(=O)O)ccc2o1` (stereo not drawn) [compound 11], the “LE (ligand efficiency)” value came out at 0.27. The compound also displayed an IC50 (verified HTVS hits, Fig 4) of 39 ± 4 µM.

For the compound `O=C(O)CCc1nc2c(O)nc(SCc3ccccc3F)[nH]c-2nc1=O` [compound 12], the “LE (ligand efficiency)” value is 0.27. Inhibition (verified HTVS hits, Fig 4) was half-maximal at 12.1 ± 1.6 µM (IC50).

On to `O=C(O)c1cc(C2CCN(C(=O)C[C@H]3CCCCO3)CC2)no1` [compound 13], for which the “LE (ligand efficiency)” value is reported as 0.26. Where the note is “verified HTVS hits, Fig 4”, this compound registered a half-maximal inhibitory concentration (IC50) of 65 ± 5 µM.

Turning to `Cc1csc2ncc(C(=O)N[C@H]3Cc4ccc(C(=O)O)cc4C3)n12` [compound 14], the “LE (ligand efficiency)” value amounted to 0.25. For the same compound, it took 49 ± 5 µM to reach half-maximal inhibition (verified HTVS hits, Fig 4) (IC50).

In the case of `CCCCC[C@H](O)CC[C@@H]1[C@H]2Cc3cccc(OCC(=O)O)c3C[C@H]2C[C@H]1O` [compound 15, Remodulin, reference compound], the “LE (ligand efficiency)” value amounted to 0.25. Also, the IC50 (verified HTVS hits, Fig 4) is 12.5 ± 1.5 µM.
